Tests used:
Conditions in all cases: primary screen
[1] = test system: ENR+CD organoids (ISC to Paneth cell differentiation); test: Primary screen: CCh-stimulated lysozyme secretion LYZ.S, 2.5-D 384-well ENR+CD organoid differentiation; assay type: cell-based, mouse
Excerpt: (§1) High-throughput screening.

[2] = test system: ENR+CD organoids (ISC to Paneth cell differentiation); test: Primary screen: basal (non-stimulated) lysozyme secretion LYZ.NS, 2.5-D 384-well ENR+CD organoid differentiation; assay type: cell-based, mouse
Excerpt: as §1

ENR+CD organoids = test: Primary screen: ATP (CellTiter-Glo 3D, CTG) cell number/viability, 2.5-D 384-well ENR+CD organoids;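 also: compounds given at plating and again on day 3 over a 6-day differentiation from ENR+CV stem-cell-enriched precursors, ATP measured on day 6, plate median as control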
[3] = 1st dose row of the treatment (0.08 uM by row order; dose not reprinted)
[4] = 2nd dose row of the treatment (0.40 uM by row order; dose not reprinted)
[5] = 3rd dose row of the treatment (2.00 uM by row order; dose not reprinted)
[6] = 4th dose row of the treatment (10.00 uM by row order; dose not reprinted)

Row | Molecule | Dose.FC.LYZ.S ([1]; dose 0.08 uM) [log2 fold change] | Dose.FC.LYZ.S ([1]; dose 0.40 uM) [log2 fold change] | Dose.FC.LYZ.S ([1]; dose 2.00 uM) [log2 fold change] | Dose.FC.LYZ.S ([1]; dose 10.00 uM) [log2 fold change] | Dose.FC.LYZ.NS ([2]; dose 0.08 uM) [log2 fold change] | Z.LYZ.NS (standard z score) ([2]; dose 0.08 uM) | Dose.FC.LYZ.NS ([2]; dose 0.40 uM) [log2 fold change] | Z.LYZ.NS (standard z score) ([2]; dose 0.40 uM) | Dose.FC.LYZ.NS ([2]; dose 2.00 uM) [log2 fold change] | Z.LYZ.NS (standard z score) ([2]; dose 2.00 uM) | Dose.FC.LYZ.NS ([2]; dose 10.00 uM) [log2 fold change] | Z.LYZ.NS (standard z score) ([2]; dose 10.00 uM) | Dose.FC.CTG (ENR+CD organoids; dose 0.08 uM) [log2 fold change] | Z.CTG (standard z score) (ENR+CD organoids; dose 0.08 uM) | Dose.FC.CTG (ENR+CD organoids; dose 0.40 uM) [log2 fold change] | Z.CTG (standard z score) (ENR+CD organoids; dose 0.40 uM) | Dose.FC.CTG (ENR+CD organoids; dose 2.00 uM) [log2 fold change] | Z.CTG (standard z score) (ENR+CD organoids; dose 2.00 uM) | Dose.FC.CTG (ENR+CD organoids; dose 10.00 uM) [log2 fold change] | Z.CTG (standard z score) (ENR+CD organoids; dose 10.00 uM) | other results
1 | Cc1cc(C)nc(NS(=O)(=O)c2ccc(NC(=S)NC(=O)COc3ccc(Br)cc3Cl)cc2)n1 [ZCL278] | −0.107 | 0.077 | −0.079 | −0.080 | −0.084 | −0.729 | −0.037 | −0.325 | 0.025 | 0.218 | 0.015 | 0.130 | −0.964 | −2.303 | 0.018 | 0.044 | −0.228 | −0.545 | −0.104 | −0.247 | –
2 | COc1cc2ncnc(Nc3ccc(Cl)cc3F)c2cc1OC [ZM 306416] | 0.006 | −0.288 | −0.403 | −0.431 | 0.105 | 0.912 | −0.223 | −1.942 | −0.291 | −2.531 | −0.275 | −2.395 | −0.080 | −0.190 | −0.483 | −1.155 | −1.312 | −3.135 | −1.490 | −3.559 | –
3 | COc1cc2c(Nc3ccc(NC(=O)c4ccccc4)cc3)ncnc2cc1OCCCN1CCOCC1 [ZM 447439] | 0.171 | 0.108 | 0.074 | −0.132 | 0.103 | 0.896 | 0.107 | 0.932 | 0.052 | 0.456 | −0.080 | −0.695 | 0.512 | 1.222 | 0.304 | 0.725 | 0.231 | 0.552 | −0.240 | −0.574 | –
4 | O=c1ncccn1[C@@H]1O[C@H](CO)[C@@H](O)[C@H]1O [Zebularine] | 0.092 | 0.077 | 0.051 | 0.102 | 0.026 | 0.223 | 0.009 | 0.075 | 0.095 | 0.828 | 0.086 | 0.749 | 0.035 | – | 0.000 | – | −0.089 | – | −0.167 | – | –
5 | COc1nc(C)cnc1NS(=O)(=O)c1cccnc1-c1ccc(-c2nnco2)cc1 [Zibotentan (ZD4054)] | 0.168 | 0.130 | −0.038 | 0.050 | 0.094 | 0.820 | 0.054 | 0.474 | −0.003 | −0.029 | 0.101 | 0.877 | 0.104 | 0.249 | −0.009 | −0.022 | −0.768 | −1.834 | −0.001 | −0.003 | –
6 | Cl.Cl.Cl.O[C@@H](COc1cccc2ncccc12)CN1CCN([C@@H]2c3ccccc3[C@@H]3[C@H](c4ccccc42)C3(F)F)CC1 [Zosuquidar (LY335979) 3HCl] | 0.124 | 0.127 | 0.129 | −0.200 | 0.096 | 0.839 | 0.080 | 0.696 | 0.207 | 1.802 | −0.209 | −1.821 | 0.017 | 0.041 | 0.197 | 0.470 | 0.276 | 0.659 | −0.193 | −0.461 | –
7 | (−)-MK 801 Maleate | 0.015 | −0.179 | −0.334 | −0.403 | 0.008 | 0.072 | −0.099 | −0.864 | −0.256 | −2.227 | −0.259 | −2.255 | 0.127 | 0.303 | −0.377 | −0.899 | −0.702 | −1.677 | −0.936 | −2.236 | SSMD.LYZ.S_Rep (strictly standardized mean difference) [1, 3]: 0.116; Z.LYZ.S (standard z score) [1, 3]: 0.099; SSMD.LYZ.S_Rep (strictly standardized mean difference) [1, 4]: −0.976; Z.LYZ.S (standard z score) [1, 4]: −1.159; SSMD.LYZ.S_Rep (strictly standardized mean difference) [1, 5]: −1.187; Z.LYZ.S (standard z score) [1, 5]: −2.160; SSMD.LYZ.S_Rep (strictly standardized mean difference) [1, 6]: −1.768; Z.LYZ.S (standard z score) [1, 6]: −2.604; SSMD.LYZ.NS_Rep (strictly standardized mean difference) [2, 3]: 0.070; SSMD.LYZ.NS_Rep (strictly standardized mean difference) [2, 4]: −0.550; SSMD.LYZ.NS_Rep (strictly standardized mean difference) [2, 5]: −1.315; SSMD.LYZ.NS_Rep (strictly standardized mean difference) [2, 6]: −1.708; SSMD.CTG.Rep (strictly standardized mean difference) (ENR+CD organoids; [3]): 0.442; SSMD.CTG.Rep (strictly standardized mean difference) (ENR+CD organoids; [4]): −1.342; SSMD.CTG.Rep (strictly standardized mean difference) (ENR+CD organoids; [5]): −1.102; SSMD.CTG.Rep (strictly standardized mean difference) (ENR+CD organoids; [6]): −1.696
8 | BAM7 | 0.079 | 0.039 | 0.019 | −0.020 | 0.045 | 0.391 | −0.009 | −0.082 | 0.057 | 0.498 | −0.007 | −0.063 | 0.209 | 0.498 | −0.010 | −0.024 | −0.156 | −0.373 | −0.114 | −0.272 | –
9 | HA14-1 | – | – | – | – | – | 1.052 | – | 1.195 | – | 1.345 | – | 1.151 | – | 1.276 | – | 1.255 | – | 1.323 | – | 0.926 | Dose.FC.LYZ.S (log2 fold change) ([1]; dose 0.08 uM): 0.190; Dose.FC.LYZ.S (log2 fold change) ([1]; dose 0.40 uM): 0.316; Dose.FC.LYZ.S (log2 fold change) ([1]; dose 2.00 uM): 0.170; Dose.FC.LYZ.S (log2 fold change) ([1]; dose 10.00 uM): 0.149; Dose.FC.LYZ.NS (log2 fold change) ([2]; dose 0.08 uM): 0.121; Dose.FC.LYZ.NS (log2 fold change) ([2]; dose 0.40 uM): 0.137; Dose.FC.LYZ.NS (log2 fold change) ([2]; dose 2.00 uM): 0.154; Dose.FC.LYZ.NS (log2 fold change) ([2]; dose 10.00 uM): 0.132; Dose.FC.CTG (log2 fold change) (ENR+CD organoids; dose 0.08 uM): 0.534; Dose.FC.CTG (log2 fold change) (ENR+CD organoids; dose 0.40 uM): 0.526; Dose.FC.CTG (log2 fold change) (ENR+CD organoids; dose 2.00 uM): 0.554; Dose.FC.CTG (log2 fold change) (ENR+CD organoids; dose 10.00 uM): 0.388
